Patent US10066004B2 (ARIZONA CANCER THERAPEUTICS, LLC, priority 2010, dated 2018)

Key:
MDA-MB-468 cells [1] = experiment: Intracellular ROS by flow cytometry, DCFH-DA; assay type: cell-based; settings: 20 μmol/l EJ1, 0.5 mmol/l NAC
Experimental: (§1) (a) MDA-MB-468 cells were incubated in serum-free media with 200 nmol/l MitoTracker Red CMXRos and 5 μg/ml Hoechst 33342 nuclear stain, followed by either 20 μmol/l CP (A-B′) or 20 μmol/l EJ1 (C-D′), and imaged at 0 minutes (A, A′; and C, C′) or at 5 minutes (B, B′; and D, D′). (b) MDA-MB-468 cells were incubated with 1 μmol/l JC-1, followed by 20 μmol/l CP, 20 μmol/l EJ1, or 50 μmol/l CCCP. Results were calculated as the ratio of the 514/590 nm to 514/529 nm fluorescences and the ratio for CP-treated sample was set as 1. *P<0.05, Student's t-test. Error bars, mean±SD. (c) T47D cells were treated with MitoTracker (shown in D-F and F′) and Hoechst 33342 as in (a) and incubated with 20 μmol/l FITC-labeled EJ1 (shown in A-C and C′). […] Cells were then sorted by flow cytometer and analyzed by Cellquest Pro 4.0 software. The results are expressed as the percentage of DCFH fluorescence-positive cells. *P<0.05, Student's t-test. […]
Generation of intracellular ROS was evaluated by flow cytometry using the 2′,7′-dichlorofluorescein diacetate probe (Invitrogen). Fluorescent cells were analyzed by a FACScan flow cytometer (BD Biosciences) at the Flow Cytometry Shared Service in the Arizona Cancer Center, and the excitation/emission wavelengths were set at 488 and 525 nm, respectively.

MDA-MB-468 cells [2] = experiment: MTT viability, EJ1 in combination with pathway inhibitors or ROS scavenger; assay type: cell-based; settings: MDA-MB-468, 20 μmol/l EJ1 plus inhibitor
Experimental: (a) MDA-MB-468 cells were treated with either 20 μmol/l CP (A-D) or 20 μmol/l EJ1 (E-H) for 0 minutes (A, E), 15 minutes (B, F), 60 minutes (C, G), or 16 hours (D, H). Arrows indicate membrane blebs and arrowheads indicate intracellular vacuoles. (b) BxPC3 cells were serum starved overnight, then treated with 20 μmol/l EJ1 and 50 ng/ml Texas-Red-labeled EGF, and imaged for 30 minutes with an Olympus IX71 deconvolution microscope. Panels A-F are bright field images, D′-F′ are red channel images (Texas-Red-labeled EGF). Arrowheads indicate locations of EGF accumulation on membrane protrusions. (c) Diagram depicts Ca^2+/CaM-regulated signaling pathway, and inhibitors acting at different targets are indicated. (d) MDA-MB-468 cells were pretreated with 50 μmol/l W-13 (D-F), 10 μmol/l ML-7 (G-I), or 10 μmol/l Y-27632 (J-L) in complete medium at 37° C. for 30 minutes and then treated with vehicle, 20 μmol/l CP, or 20 μmol/l EJ1 in combination with W-13, ML-7, or Y-27632 in complete medium at 37° C. for 15 minutes. Images represent the bright field images. Arrows indicate membrane blebbing. (e) MDA-MB-468 cells were untreated (UNTX) or treated with water (Vehicle), 20 μmol/l EJ1, 10 μmol/l Y-27632, or 10 μmol/l ML-7 alone or EJ1 in combination with Y-27632 or ML-7, and the viability was assessed by the MTT assay. **P<0.01 (Student's t-test). Error bars, mean±SD. (f) MDA-MB-468 cells were either in serum-free medium (SF) or stimulated with 100 ng/ml EGF (EGF) and then incubated with water (Vehicle), 20 μmol/l CP, 20 μmol/l EJ1, 2 μmol/l ionomycin, 50 μmol/l W-13, 100 μmol/l KN-93, or EJ1 in combination with ionomycin for 15 minutes. Lysates were immunoblotted with antibodies as indicated. (g) Stable, neomycin-selected NIH3T3 cell lines were created, expressing either Rac1 wild-type (Rac1-WT) or Rac1 constitutively active mutant (Rac1-Q61L). Cells were treated with water (Vehicle), 20 μmol/l CP, or 20 μmol/l EJ1, and the viability was assessed by MTT. ***P<0.001 (Student's t-test). Error bars, mean±SD.
as §1, with “mean±SD.” for “mean±SD. (c) T47D cells were treated with MitoTracker (shown in D-F and F′) and Hoechst 33342 as in (a) and incubated with 20 μmol/l FITC-labeled EJ1 (shown in A-C and C′).”

SMILES: CC(=O)N[C@@H](CS)C(=O)O [NAC, N-acetyl cysteine]
- intracellular ROS levels (DCF fluorescence) (MDA-MB-468 cells [1]): significantly reduced EJ1-induced ROS levels
- effect of co-treatment on EJ1-induced loss of cell viability (MTT) (MDA-MB-468 cells [2]): significantly rescue EJ1-induced cell death
